Series [1] is described as follows: in vitro. The note with it: rat, hepatocytes.
Series [2] can be described thus: in vitro. The note with it: human, hepatocytes.
The next series is described as follows: physchem. The note with it: octanol/buffer, pH 7.4.
The target of series [3] is T1, Serine-protein kinase ATM (Homo sapiens, UniProt Q13315). As to the kind of experiment: Inhibition of ATM phosphorylation at Ser-1981 residue in human HT-29 cells incubated for 1 hr followed by X-ray irradiation by Hoechst staining based fluorescence plate reader analysis. In kind it is cell-based.
T1 sequence (Q13315 whole entry): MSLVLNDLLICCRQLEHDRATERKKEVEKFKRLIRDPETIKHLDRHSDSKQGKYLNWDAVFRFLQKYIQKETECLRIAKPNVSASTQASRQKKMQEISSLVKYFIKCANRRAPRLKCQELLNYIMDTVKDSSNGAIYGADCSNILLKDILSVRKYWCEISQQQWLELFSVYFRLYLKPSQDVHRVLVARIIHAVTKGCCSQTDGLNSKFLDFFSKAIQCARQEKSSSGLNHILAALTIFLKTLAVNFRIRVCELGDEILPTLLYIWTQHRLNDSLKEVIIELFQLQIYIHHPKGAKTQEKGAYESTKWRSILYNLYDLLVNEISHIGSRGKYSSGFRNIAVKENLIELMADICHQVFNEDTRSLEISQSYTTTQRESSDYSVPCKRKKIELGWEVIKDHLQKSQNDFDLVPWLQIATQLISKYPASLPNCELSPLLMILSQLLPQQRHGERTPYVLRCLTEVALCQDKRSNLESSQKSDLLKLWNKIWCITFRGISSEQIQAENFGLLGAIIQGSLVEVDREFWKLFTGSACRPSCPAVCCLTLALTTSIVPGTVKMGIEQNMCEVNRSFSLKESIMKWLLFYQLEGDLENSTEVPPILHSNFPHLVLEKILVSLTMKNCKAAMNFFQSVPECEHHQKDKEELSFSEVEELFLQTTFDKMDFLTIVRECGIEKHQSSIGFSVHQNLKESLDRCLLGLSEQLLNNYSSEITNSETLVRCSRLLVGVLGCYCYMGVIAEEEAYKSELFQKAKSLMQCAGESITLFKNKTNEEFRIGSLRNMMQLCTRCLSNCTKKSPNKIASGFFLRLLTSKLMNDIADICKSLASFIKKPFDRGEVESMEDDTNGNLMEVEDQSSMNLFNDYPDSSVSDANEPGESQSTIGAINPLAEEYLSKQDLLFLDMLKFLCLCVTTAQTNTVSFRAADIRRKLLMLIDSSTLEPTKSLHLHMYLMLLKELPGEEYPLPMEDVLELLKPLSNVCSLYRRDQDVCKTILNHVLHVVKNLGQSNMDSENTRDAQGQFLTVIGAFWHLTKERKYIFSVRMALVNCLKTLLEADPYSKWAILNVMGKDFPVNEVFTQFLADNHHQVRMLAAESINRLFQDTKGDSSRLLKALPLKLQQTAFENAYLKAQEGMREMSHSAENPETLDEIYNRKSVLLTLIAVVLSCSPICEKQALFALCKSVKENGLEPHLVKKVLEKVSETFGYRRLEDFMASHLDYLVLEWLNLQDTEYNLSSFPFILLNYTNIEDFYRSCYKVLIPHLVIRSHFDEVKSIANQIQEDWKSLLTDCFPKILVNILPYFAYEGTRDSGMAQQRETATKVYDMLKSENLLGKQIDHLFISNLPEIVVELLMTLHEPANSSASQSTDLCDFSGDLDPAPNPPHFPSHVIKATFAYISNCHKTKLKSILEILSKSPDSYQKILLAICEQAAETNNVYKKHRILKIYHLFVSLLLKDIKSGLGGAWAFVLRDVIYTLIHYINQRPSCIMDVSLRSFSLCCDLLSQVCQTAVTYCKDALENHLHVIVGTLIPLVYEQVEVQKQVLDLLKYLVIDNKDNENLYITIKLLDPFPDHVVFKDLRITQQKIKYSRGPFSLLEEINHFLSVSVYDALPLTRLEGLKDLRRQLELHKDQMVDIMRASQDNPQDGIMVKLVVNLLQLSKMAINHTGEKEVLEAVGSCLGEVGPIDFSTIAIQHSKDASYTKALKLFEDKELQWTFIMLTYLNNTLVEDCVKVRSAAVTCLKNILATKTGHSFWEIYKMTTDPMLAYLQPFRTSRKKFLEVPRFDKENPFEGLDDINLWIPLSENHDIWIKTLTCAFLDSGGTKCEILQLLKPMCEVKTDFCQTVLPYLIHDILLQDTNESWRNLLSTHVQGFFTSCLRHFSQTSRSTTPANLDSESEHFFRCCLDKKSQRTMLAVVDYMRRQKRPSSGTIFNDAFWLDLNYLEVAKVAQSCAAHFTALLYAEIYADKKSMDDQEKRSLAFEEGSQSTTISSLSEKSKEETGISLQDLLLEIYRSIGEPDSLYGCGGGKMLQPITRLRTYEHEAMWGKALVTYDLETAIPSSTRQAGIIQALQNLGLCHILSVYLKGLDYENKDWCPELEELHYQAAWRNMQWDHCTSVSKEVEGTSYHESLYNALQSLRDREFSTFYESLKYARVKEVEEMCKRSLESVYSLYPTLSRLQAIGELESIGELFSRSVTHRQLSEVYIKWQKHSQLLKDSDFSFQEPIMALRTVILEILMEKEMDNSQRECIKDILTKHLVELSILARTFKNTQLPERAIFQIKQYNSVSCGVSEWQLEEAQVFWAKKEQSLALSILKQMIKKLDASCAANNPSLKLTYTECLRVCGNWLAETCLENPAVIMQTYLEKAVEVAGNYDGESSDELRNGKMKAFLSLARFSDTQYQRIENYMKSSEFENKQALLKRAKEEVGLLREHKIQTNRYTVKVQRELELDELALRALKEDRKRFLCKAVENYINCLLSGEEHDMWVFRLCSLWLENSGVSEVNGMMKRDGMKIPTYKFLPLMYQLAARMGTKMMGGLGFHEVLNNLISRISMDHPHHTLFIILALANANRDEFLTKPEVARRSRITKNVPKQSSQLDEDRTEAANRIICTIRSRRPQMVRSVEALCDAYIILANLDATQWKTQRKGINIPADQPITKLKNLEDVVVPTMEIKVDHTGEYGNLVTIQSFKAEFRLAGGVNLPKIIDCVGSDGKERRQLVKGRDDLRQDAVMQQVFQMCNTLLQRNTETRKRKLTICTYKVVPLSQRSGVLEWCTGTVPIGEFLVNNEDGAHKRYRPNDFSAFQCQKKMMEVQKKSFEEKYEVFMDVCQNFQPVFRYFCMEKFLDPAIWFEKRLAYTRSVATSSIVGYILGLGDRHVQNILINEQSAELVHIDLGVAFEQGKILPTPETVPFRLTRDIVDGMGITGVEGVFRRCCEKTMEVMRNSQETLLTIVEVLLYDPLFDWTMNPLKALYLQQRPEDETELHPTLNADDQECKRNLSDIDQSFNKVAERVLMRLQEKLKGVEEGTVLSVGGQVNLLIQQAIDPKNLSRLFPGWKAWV
In series [4] the target is Serine/threonine-protein kinase ATR (Homo sapiens, UniProt Q13535). The series can be described thus: Inhibition of ATR in human HT-29 cells assessed as reduction in Chk1 phosphorylation at Ser-345 residue after 60 mins in presence of 4-nitroquinoline-1-oxide by Hoechst 33258 staining based plate reader analysis. In kind it is cell-based.
Series [5] has as its target T1, Serine-protein kinase ATM. As to the kind of experiment: Inhibition of ATM in human HT-29 cells assessed as reduction in ATM phosphorylation at Ser-1981 residue up to 30 uM incubated for 1 hr followed by X-ray irradiation by Hoeschst staining based plate reader analysis. In kind it is cell-based.
For series [6], the target named is Voltage-gated inwardly rectifying potassium channel KCNH2 (Homo sapiens, UniProt Q12809).
Series [7] has as its target Serine/threonine-protein kinase mTOR (Homo sapiens, UniProt P42345). As to the kind of experiment: Inhibition of C-terminal FLAG-tagged recombinant mTOR (1362 to 2549 residues) (unknown origin) using Biotin-Ahx-Lys-Lys-Ala-Asn-Gln-Val-Phe-Leu-Gly-Phe-Thr-Tyr-Val-Ala-Pro-Ser-Val-Leu-Glu-Ser-Val-Lys-Glu-NH2 as substrate after 90 mins by AlphaScreen assay. (Alpha assays give light when donor and acceptor beads are brought close together.)

Series [8] has as its target Phosphatidylinositol 4,5-bisphosphate 3-kinase catalytic subunit alpha isoform (Homo sapiens, UniProt P42336). As to the kind of experiment: Inhibition of human recombinant PI3Kalpha using PIP2/ATP as substrate incubated for 20 mins followed by substrate addition by Kinase Glo reagent based luminescence assay. A general note: Kinase-Glo reads ATP consumption through a luciferase reaction.

The target of series [9] is Phosphatidylinositol 4,5-bisphosphate 3-kinase catalytic subunit beta isoform (Homo sapiens, UniProt P42338). The series can be described thus: Inhibition of human recombinant PI3Kbeta using PIP2/ATP as substrate incubated for 20 mins followed by substrate addition by Kinase Glo reagent based luminescence assay.
Series [10] has as its target Phosphatidylinositol 4,5-bisphosphate 3-kinase catalytic subunit gamma isoform (Homo sapiens, UniProt P48736). As to the kind of experiment: Inhibition of human recombinant PI3Kgamma using PIP2/ATP as substrate incubated for 20 mins followed by substrate addition by Kinase Glo reagent based luminescence assay.
In series [11] the target is T1, Serine-protein kinase ATM. The series can be described thus: Inhibition of ATM (unknown origin) using p53 as substrate incubated for 30 mins followed by substrate addition measured after 2 hrs in presence of ATP by HTRF method. A general note: TR-FRET usually uses a lanthanide donor and a delayed reading to cut background.
Series [12] has as its target DNA-dependent protein kinase catalytic subunit (Homo sapiens, UniProt P78527). The series can be described thus: Inhibition of DNAPK (unknown origin) using p53-based peptide substrate preincubated for 5 min prior to ATP addition.
Series [13] deals with Glycogen synthase kinase-3 beta (Homo sapiens, UniProt P49841). As to the kind of experiment: Inhibition of GSK3beta (unknown origin).
Glycogen synthase kinase-3 beta, sequence (P49841 whole entry): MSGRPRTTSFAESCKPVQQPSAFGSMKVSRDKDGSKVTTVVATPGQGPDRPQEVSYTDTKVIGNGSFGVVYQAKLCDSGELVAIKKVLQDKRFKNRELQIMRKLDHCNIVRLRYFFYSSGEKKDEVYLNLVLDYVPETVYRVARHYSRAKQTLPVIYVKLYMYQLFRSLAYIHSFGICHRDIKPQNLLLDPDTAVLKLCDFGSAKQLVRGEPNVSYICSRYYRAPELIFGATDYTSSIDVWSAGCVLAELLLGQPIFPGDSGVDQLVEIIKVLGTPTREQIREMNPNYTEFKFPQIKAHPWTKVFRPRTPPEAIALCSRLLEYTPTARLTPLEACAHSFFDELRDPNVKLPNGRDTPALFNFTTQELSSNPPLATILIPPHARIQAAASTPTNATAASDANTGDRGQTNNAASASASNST
Series [14] has as its target Vascular endothelial growth factor receptor 2 (Homo sapiens, UniProt P35968). The series can be described thus: Inhibition of KDR (unknown origin).
For another series, the species on record is Homo sapiens. As to the kind of experiment: Selectivity ratio of IC50 for ATR in human HT-29 cells to IC50 for ATM in human HT-29 cells. In kind it is cell-based.

Each structure is given as a SMILES string. The source made the active and inactive calls. No cut-off for these calls is given here.
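Throughout, for logD: determined by the shake flask method.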

Phosphatidylinositol 4,5-bisphosphate 3-kinase catalytic subunit gamma isoform, sequence (P48736 whole entry, canonical isoform): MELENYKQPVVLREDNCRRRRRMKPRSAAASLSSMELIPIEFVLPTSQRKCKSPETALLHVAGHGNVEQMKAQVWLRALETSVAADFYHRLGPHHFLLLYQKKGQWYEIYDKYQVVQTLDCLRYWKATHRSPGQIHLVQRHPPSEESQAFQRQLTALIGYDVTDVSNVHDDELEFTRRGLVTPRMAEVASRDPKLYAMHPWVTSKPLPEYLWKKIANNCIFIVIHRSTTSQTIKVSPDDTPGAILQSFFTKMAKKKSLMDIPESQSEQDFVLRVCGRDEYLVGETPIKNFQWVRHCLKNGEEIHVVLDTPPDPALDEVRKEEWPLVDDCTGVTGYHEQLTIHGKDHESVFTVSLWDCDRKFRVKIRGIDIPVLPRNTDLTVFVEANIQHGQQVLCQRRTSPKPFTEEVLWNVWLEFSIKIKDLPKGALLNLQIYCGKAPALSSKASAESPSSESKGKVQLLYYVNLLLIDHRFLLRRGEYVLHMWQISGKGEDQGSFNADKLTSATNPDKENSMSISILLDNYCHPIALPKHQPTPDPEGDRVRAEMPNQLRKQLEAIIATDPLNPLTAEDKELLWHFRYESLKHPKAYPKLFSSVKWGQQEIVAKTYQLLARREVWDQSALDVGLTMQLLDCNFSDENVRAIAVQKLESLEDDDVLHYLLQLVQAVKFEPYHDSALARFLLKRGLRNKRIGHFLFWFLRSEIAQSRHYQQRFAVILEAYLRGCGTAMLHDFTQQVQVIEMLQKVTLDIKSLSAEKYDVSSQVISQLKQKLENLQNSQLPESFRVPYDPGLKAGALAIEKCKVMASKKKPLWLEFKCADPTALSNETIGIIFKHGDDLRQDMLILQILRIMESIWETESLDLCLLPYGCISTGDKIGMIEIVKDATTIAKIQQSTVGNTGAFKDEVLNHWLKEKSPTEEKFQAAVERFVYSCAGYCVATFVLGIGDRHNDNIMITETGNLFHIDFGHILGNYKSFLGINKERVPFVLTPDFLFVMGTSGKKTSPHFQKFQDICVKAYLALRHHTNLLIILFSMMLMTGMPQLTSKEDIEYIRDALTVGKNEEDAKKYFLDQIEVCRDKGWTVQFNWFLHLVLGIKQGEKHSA

What is called hepatocyte CLint is a measure of how fast metabolising enzymes remove a compound, apart from limits set by blood flow. One may read the logD as lipophilicity at a set pH, counting ionised and neutral species. Lower therefore signals lower lipophilicity. The term IC50 denotes the concentration that gives 50% inhibition. For `CCC(CC)COc1c(C(N)=O)cnc2ccc(-c3cccnc3)cc12`, the hepatocyte CLint at 1.5 h was 260 µL/min/1e6 cells in “in vitro [1]” and 42 µL/min/1e6 cells in the series “in vitro [2]”. For the same compound, the logD in “physchem” is over 4.3. The IC50 is over 30000 nM in series [3], over 30000 nM in series [4] and 2100 nM in series [6]. In series [5], the inhibition result was “inactive”.
Take `C[C@@H]1CN(CC(=O)Nc2ccc3c(c2)Cc2cccc(-c4cc(=O)cc(N5CCOCC5)o4)c2S3)C[C@H](C)O1`: the IC50 is 6550 nM in [7], 452 nM in series [8], 2140 nM in [9] and over 1000 nM in series [10]. Moreover, the hepatocyte CLint at 1.5 h in “in vitro [1]” was 22 µL/min/1e6 cells; in the series “in vitro [2]” it was 13 µL/min/1e6 cells. In the series “physchem”, the logD worked out at 3.6.
For `C[C@@H](Nc1c(C(N)=O)cnc2ccc(C#N)cc12)c1ccc(Cl)cc1`, the IC50 in series [7] was 846 nM; in series [8], 36 nM; in [9] it was 139 nM; in [11] it was 49 nM; in series [3] it was 14400 nM; in [4], 4700 nM. Besides, the IC50 was 109 nM in [12] and 204 nM in series [10]. In addition, the hepatocyte CLint at 1.5 h was determined as 41 µL/min/1e6 cells in “in vitro [1]” and 10 µL/min/1e6 cells in the series “in vitro [2]”. In addition, the logD in the series “physchem” amounted to 3.5.
On to `O=c1cc(-c2cccc3c2Sc2ccccc2S3)oc(N2CCOCC2)c1` [KU-55933], for which the IC50 was 5580 nM in series [7]; 458 nM in series [8]; 133 nM in series [9]; over 30000 nM in series [4]; over 1000 nM in series [10]. Also, the intrinsic clearance (hepatocyte CLint) at 1.5 h in “in vitro [1]” came to 230 µL/min/1e6 cells; in “in vitro [2]”, 33 µL/min/1e6 cells. In addition, the logD in “physchem” worked out at 4.
In the case of `CCC(CC)CNc1c(C(N)=O)cnc2ccc(-c3ccc(COC)nc3)cc12`, the 50% inhibitory concentration (IC50) in series [13] was over 100000 nM; in series [3] it was 45 nM; in [14] it was 82000 nM; in series [4], over 30000 nM; in series [6], 2500 nM. For the same compound, the results for the hepatocyte CLint at 1.5 h in “in vitro [1]” and in “in vitro [2]” were 110 µL/min/1e6 cells and under 6.8 µL/min/1e6 cells, respectively. Also, the logD in the series “physchem” was over 4.3.
In the case of `Cc1ccc([C@@H](C)Nc2c(C(N)=O)cnc3ccc(C#N)cc23)cc1`, the inhibition result in [5] is “inactive”.
With `C[C@@H](Nc1c(C(N)=O)cnc2ccc(-c3cccnc3)cc12)c1ccc(Cl)cc1`, the IC50 in [7] came out at 181 nM; in series [8], 8 nM; in series [9], 21 nM; in series [11] it was 2 nM; in [3] it was 109 nM; in [4], 1900 nM. For the same compound, the results for the IC50 in series [12] and in series [10] were 5 nM and 45 nM, respectively. For the same compound, the values for the intrinsic metabolic clearance (hepatocyte CLint) at 1.5 h in “in vitro [1]” and in “in vitro [2]” were 70 µL/min/1e6 cells and 11 µL/min/1e6 cells, respectively. Further, in the series “physchem”, the logD was over 4.3. Moreover, in the series filed under Homo sapiens, the Ratio IC50 was over 10.
For `COc1cc2ncnc(-n3nc(-c4ccccn4)nc3N)c2cc1OC`, the IC50 in series [7] was 4590 nM; in series [8] it was 1490 nM; in series [9], 5440 nM; in [4], over 30000 nM; in [12], 879 nM; in [10], over 1000 nM. The hepatocyte CLint at 1.5 h in the series “in vitro [1]” came to 89 µL/min/1e6 cells; in “in vitro [2]”, 4.5 µL/min/1e6 cells. Further, the logD in the series “physchem” was determined as 2.6.

For the origin of these results see ChEMBL document CHEMBL4477207, “Discovery of Novel 3-Quinoline Carboxamides as Potent, Selective, and Orally Bioavailable Inhibitors of Ataxia Telangiectasia Mutated (ATM) Kinase” (J Med Chem, 2016).
